Experimental data taken from patent US6800642B2, “Antipsychotic aminomethyl derivatives of 7,8-dihydro-2,6,9-trioxa-3-aza-cyclopenta[a]naphthalene” (Wyeth, priority 2001, dated 2004).
Counter-ions that a name gives are not always drawn.

Tested on: dopamine receptors
Experiment: Reduction of mouse locomotor activity (functional antagonism of dopamine receptors in vivo)
Details: sc; male CF-1 mice; horizontal activity counts 10 to 20 minutes after dosing
Procedure: The antipsychotic activity of the compounds of the invention was established by a determination of functional antagonism of dopamine receptors in vivo, specifically the compounds' ability to reduce mouse locomotor activity according to the method of Martin and Bendensky, J. Pharmacol. Exp. Therap. 229:706-711, 1984, in which mice (male, CF-1, Charles River, 20-30 g) were injected with vehicle or various doses of each drug and locomotor activity was measured for 30 minutes using automated infrared activity monitors (Omnitech—8×8 inch open field) located in a darkened room. ED50's were calculated from the horizontal activity counts collected from 10 to 20 minutes after dosing using a nonlinear regression analysis with inverse prediction.

Structure (SMILES) | ED50 for reduction of mouse locomotor activity [mg/kg]
C1=C(c2c[nH]c3ccccc23)CCN(CC2COc3ccc4nocc4c3O2)C1 (stereo not drawn) [Example 3, 8-[4-(1H-Indol-3-yl)-3,6-dihydro-2H-pyridin-1-ylmethyl]-7,8-dihydro-2,6,9-trioxa-3-aza-cyclopenta[a]naphthalene] | ≥ 50

Target: T1, dopamine D2 receptor (Rattus norvegicus, UniProt P61169)
T1 construct: from tissue; host or cells: rat striatal brain tissue homogenate
T1 sequence (P61169 whole entry): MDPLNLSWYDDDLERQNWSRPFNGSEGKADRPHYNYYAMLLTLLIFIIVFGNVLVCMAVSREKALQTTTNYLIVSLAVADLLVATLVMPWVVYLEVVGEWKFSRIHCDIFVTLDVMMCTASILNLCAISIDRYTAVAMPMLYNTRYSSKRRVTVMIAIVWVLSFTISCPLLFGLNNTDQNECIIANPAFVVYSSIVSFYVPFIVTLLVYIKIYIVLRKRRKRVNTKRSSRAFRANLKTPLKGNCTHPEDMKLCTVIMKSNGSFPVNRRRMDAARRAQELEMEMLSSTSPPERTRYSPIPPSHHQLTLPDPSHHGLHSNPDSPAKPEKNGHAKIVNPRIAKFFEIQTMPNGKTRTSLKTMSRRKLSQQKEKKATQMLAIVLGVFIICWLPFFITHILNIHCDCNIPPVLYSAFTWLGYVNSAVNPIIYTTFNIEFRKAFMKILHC
Experiment: Dopamine D2 receptor affinity, 3H-quinpirole binding in homogenized rat striatal brain tissue
Details: not given
Procedure: Affinity for the dopamine D2 receptor was established by a modification of the standard experimental test procedure of Seemen and Schaus, European Journal of Pharmacology 203:105-109, 1991, wherein homogenized rat striatal brain tissue is incubated with ^3H-quinpirole and various concentrations of test compound, filtered and washed and counted in a Betaplate scintillation counter.

Structure (SMILES) | IC50 [nM]
C1=C(c2c[nH]c3ccccc23)CCN(CC2COc3ccc4nocc4c3O2)C1 (stereo not drawn) [Example 3, 8-[4-(1H-Indol-3-yl)-3,6-dihydro-2H-pyridin-1-ylmethyl]-7,8-dihydro-2,6,9-trioxa-3-aza-cyclopenta[a]naphthalene] | 350
Fc1ccc2[nH]cc(CC3CCN(CC4COc5ccc6nocc6c5O4)CC3)c2c1 (stereo not drawn) [Example 4, 8-[4-(5-Fluoro-1H-indol-3-ylmethyl)-piperidin-1-ylmethyl]-7,8-dihydro-2,6,9-trioxa-3-aza-cyclopenta[a]naphthalene] | 36.7
c1ccc2c(CCCNCC3COc4ccc5nocc5c4O3)c[nH]c2c1 (stereo not drawn) [Example 6, 2,3-Dihydro-N-[3-(1H-indol-3-yl)propyl]-1,4-dioxino[2,3-e][2,1]benzisoxazole-2-methanamine] | 4.8
c1ccc(CCCCNCC2COc3ccc4nocc4c3O2)cc1 (stereo not drawn) [Example 7, (7,8-Dihydro-2,6,9-trioxa-3-aza-cyclopenta[a]naphthalen-8-ylmethyl)-(4-phenyl-butyl)-amine] | 4.1

Now from value to compound:

IC50 [nM] | Structure (SMILES)
8.05 | c1ccc(CNCC2COc3ccc4nocc4c3O2)cc1 (stereo not drawn) [Example 1, Benzyl-(-7,8-dihydro-2,6,9-trioxa-3-aza-cyclopenta[a]naphthalen-8-ylmethyl)-amine]
58.8 | c1ccc2c(c1)CCN(CC1COc3ccc4nocc4c3O1)C2 (stereo not drawn) [Example 2, 8-(3,4-Dihydro-1H-isoquinolin-2-ylmethyl)-7,8-dihydro-2,6,9-trioxa-3-aza-cyclopenta[a]naphthalene]
32.4 | O=C(c1ccc(F)cc1)C1CCN(CC2COc3ccc4nocc4c3O2)CC1 (stereo not drawn) [Example 5, [1-(7,8-Dihydro-2,6,9-trioxa-3-aza-cyclopenta[a]naphthalen-8-ylmethyl)-piperidin-4-yl]-(4-fluoro-phenyl)-methanone]

Tested on: not given
Experiment: not given
Details: not given

Structure (SMILES) | melting point [°C]
c1ccc(CCCCNCC2COc3ccc4nocc4c3O2)cc1 (stereo not drawn) (as salt: fumarate) (hydrate or solvate) [Example 7, (7,8-Dihydro-2,6,9-trioxa-3-aza-cyclopenta[a]naphthalen-8-ylmethyl)-(4-phenyl-butyl)-amine] | 172 to 174
Fc1ccc2[nH]cc(CC3CCN(CC4COc5ccc6nocc6c5O4)CC3)c2c1 (stereo not drawn) (as salt: oxalate) [Example 4, 8-[4-(5-Fluoro-1H-indol-3-ylmethyl)-piperidin-1-ylmethyl]-7,8-dihydro-2,6,9-trioxa-3-aza-cyclopenta[a]naphthalene] | 202 to 205
c1ccc2c(CCCNCC3COc4ccc5nocc5c4O3)c[nH]c2c1 (stereo not drawn) (as salt: oxalate) [Example 6, 2,3-Dihydro-N-[3-(1H-indol-3-yl)propyl]-1,4-dioxino[2,3-e][2,1]benzisoxazole-2-methanamine] | 230
C1=C(c2c[nH]c3ccccc23)CCN(CC2COc3ccc4nocc4c3O2)C1 (stereo not drawn) [Example 3, 8-[4-(1H-Indol-3-yl)-3,6-dihydro-2H-pyridin-1-ylmethyl]-7,8-dihydro-2,6,9-trioxa-3-aza-cyclopenta[a]naphthalene] | 110

The next lines start with the values.

melting point [°C] | Structure (SMILES)
180 | c1ccc(CNCC2COc3ccc4nocc4c3O2)cc1 (stereo not drawn) (as salt: fumarate) [Example 1, Benzyl-(-7,8-dihydro-2,6,9-trioxa-3-aza-cyclopenta[a]naphthalen-8-ylmethyl)-amine]
175 to 176 | c1ccc2c(c1)CCN(CC1COc3ccc4nocc4c3O1)C2 (stereo not drawn) (as salt: fumarate) [Example 2, 8-(3,4-Dihydro-1H-isoquinolin-2-ylmethyl)-7,8-dihydro-2,6,9-trioxa-3-aza-cyclopenta[a]naphthalene]
204 to 206 | O=C(c1ccc(F)cc1)C1CCN(CC2COc3ccc4nocc4c3O2)CC1 (stereo not drawn) (as salt: fumarate) [Example 5, [1-(7,8-Dihydro-2,6,9-trioxa-3-aza-cyclopenta[a]naphthalen-8-ylmethyl)-piperidin-4-yl]-(4-fluoro-phenyl)-methanone]
